Data from ChEMBL document CHEMBL2057064, “Activation of human RNase L by 2'- and 5'-O-methylphosphonate-modified oligoadenylates” (Bioorg Med Chem Lett, 2012).
Active and inactive are the calls of the source. The rule behind the calls is not given here.

molecular target: T1, 2-5A-dependent ribonuclease (Homo sapiens) (UniProt Q05823); experiment: Antagonist activity at human RNase L expressed in Escherichia coli BL21 (DE3) cells assessed as RNA cleavage using Cy5-C11-rUU-C7-BHQ2 as substrate by FRET assay in presence of natural activator pAAAA; assay type: functional
T1 sequence (whole entry): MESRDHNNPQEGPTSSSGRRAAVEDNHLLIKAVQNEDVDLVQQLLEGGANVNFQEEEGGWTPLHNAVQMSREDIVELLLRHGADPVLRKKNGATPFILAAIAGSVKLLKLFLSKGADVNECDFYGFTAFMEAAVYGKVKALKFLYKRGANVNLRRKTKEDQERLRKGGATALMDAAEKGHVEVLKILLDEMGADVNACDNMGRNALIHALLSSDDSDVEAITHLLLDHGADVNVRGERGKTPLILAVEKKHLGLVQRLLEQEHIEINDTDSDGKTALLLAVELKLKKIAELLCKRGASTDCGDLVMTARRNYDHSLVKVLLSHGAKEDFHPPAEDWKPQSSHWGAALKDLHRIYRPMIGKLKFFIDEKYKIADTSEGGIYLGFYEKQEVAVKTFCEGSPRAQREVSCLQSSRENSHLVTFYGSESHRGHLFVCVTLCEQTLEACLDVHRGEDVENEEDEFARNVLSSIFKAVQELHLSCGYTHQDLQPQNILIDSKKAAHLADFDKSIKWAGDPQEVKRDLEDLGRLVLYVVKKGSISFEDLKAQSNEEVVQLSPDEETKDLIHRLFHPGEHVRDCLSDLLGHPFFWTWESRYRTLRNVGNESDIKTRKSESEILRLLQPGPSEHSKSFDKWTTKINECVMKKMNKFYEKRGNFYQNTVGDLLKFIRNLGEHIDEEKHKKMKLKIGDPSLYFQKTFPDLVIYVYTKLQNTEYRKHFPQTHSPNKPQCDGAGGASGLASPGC

Compound | inhibition
Nc1ncnc2c1ncn2[C@@H]1O[C@H](COCP(=O)(O)O[C@@H]2[C@H](O)[C@@H](COP(=O)(O)O[C@@H]3[C@@H](O)[C@@H](COCP(=O)(O)O[C@@H]4[C@@H](O)[C@@H](COCP(=O)(O)O)O[C@H]4n4cnc5c(N)ncnc54)O[C@H]3n3cnc4c(N)ncnc43)O[C@H]2n2cnc3c(N)ncnc32)[C@H](O)[C@H]1O | inactive
Nc1ncnc2c1ncn2[C@@H]1O[C@H](COCP(=O)(O)O[C@H]2[C@H](O)[C@@H](COCP(=O)(O)O[C@H]3[C@H](O)[C@@H](COCP(=O)(O)O[C@H]4[C@H](O)[C@@H](COCP(=O)(O)O)O[C@H]4n4cnc5c(N)ncnc54)O[C@H]3n3cnc4c(N)ncnc43)O[C@H]2n2cnc3c(N)ncnc32)[C@@H](O)[C@@H]1O | inactive
Nc1ncnc2c1ncn2[C@@H]1O[C@H](COP(=O)(O)O[C@@H]2[C@H](O)[C@@H](COCP(=O)(O)O[C@@H]3[C@H](O)[C@@H](COCP(=O)(O)O[C@@H]4[C@H](O)[C@@H](COP(=O)(O)O)O[C@H]4n4cnc5c(N)ncnc54)O[C@H]3n3cnc4c(N)ncnc43)O[C@H]2n2cnc3c(N)ncnc32)[C@@H](O)[C@H]1O | inactive
Nc1ncnc2c1ncn2[C@@H]1O[C@H](COCP(=O)(O)O[C@@H]2[C@@H](O)[C@@H](COCP(=O)(O)O[C@@H]3[C@@H](O)[C@@H](COCP(=O)(O)O[C@@H]4[C@H](O)[C@@H](COP(=O)(O)O)O[C@H]4n4cnc5c(N)ncnc54)O[C@H]3n3cnc4c(N)ncnc43)O[C@H]2n2cnc3c(N)ncnc32)[C@H](O)[C@H]1O | inactive
Nc1ncnc2c1ncn2[C@@H]1O[C@H](COCP(=O)(O)O[C@@H]2[C@H](O)[C@@H](COP(=O)(O)O[C@@H]3[C@H](O)[C@@H](COCP(=O)(O)O[C@@H]4[C@H](O)[C@@H](COCP(=O)(O)O)O[C@H]4n4cnc5c(N)ncnc54)O[C@H]3n3cnc4c(N)ncnc43)O[C@H]2n2cnc3c(N)ncnc32)[C@@H](O)[C@H]1O | inactive
Nc1ncnc2c1ncn2[C@@H]1O[C@H](COCP(=O)(O)O[C@@H]2[C@H](O)[C@@H](COCP(=O)(O)O[C@@H]3[C@H](O)[C@@H](COCP(=O)(O)O[C@@H]4[C@H](O)[C@@H](COCP(=O)(O)O)O[C@H]4n4cnc5c(N)ncnc54)O[C@H]3n3cnc4c(N)ncnc43)O[C@H]2n2cnc3c(N)ncnc32)[C@@H](O)[C@H]1O | inactive
Nc1ncnc2c1ncn2[C@@H]1O[C@H](COCP(=O)(O)O[C@@H]2[C@@H](O)[C@@H](COCP(=O)(O)O[C@@H]3[C@H](O)[C@@H](COP(=O)(O)O[C@@H]4[C@@H](O)[C@@H](COCP(=O)(O)O)O[C@H]4n4cnc5c(N)ncnc54)O[C@H]3n3cnc4c(N)ncnc43)O[C@H]2n2cnc3c(N)ncnc32)[C@H](O)[C@H]1O | inactive
Nc1ncnc2c1ncn2[C@@H]1O[C@H](COCP(=O)(O)O[C@@H]2[C@H](O)[C@@H](COCP(=O)(O)O[C@@H]3[C@H](O)[C@@H](COP(=O)(O)O[C@@H]4[C@H](O)[C@@H](COP(=O)(O)O)O[C@H]4n4cnc5c(N)ncnc54)O[C@H]3n3cnc4c(N)ncnc43)O[C@H]2n2cnc3c(N)ncnc32)[C@@H](O)[C@H]1O | inactive
Nc1ncnc2c1ncn2[C@@H]1O[C@H](COP(=O)(O)O[C@@H]2[C@H](O)[C@@H](COP(=O)(O)O[C@H]3[C@H](O)[C@@H](COCP(=O)(O)O[C@H]4[C@H](O)[C@@H](COCP(=O)(O)O)O[C@H]4n4cnc5c(N)ncnc54)O[C@H]3n3cnc4c(N)ncnc43)O[C@H]2n2cnc3c(N)ncnc32)[C@@H](O)[C@H]1O | inactive
Nc1ncnc2c1ncn2[C@@H]1O[C@H](COCP(=O)(O)O[C@@H]2[C@H](O)[C@@H](COP(=O)(O)O[C@@H]3[C@H](O)[C@@H](COP(=O)(O)O[C@@H]4[C@H](O)[C@@H](COCP(=O)(O)O)O[C@H]4n4cnc5c(N)ncnc54)O[C@H]3n3cnc4c(N)ncnc43)O[C@H]2n2cnc3c(N)ncnc32)[C@@H](O)[C@H]1O | inactive
Nc1ncnc2c1ncn2[C@@H]1O[C@H](COP(=O)(O)CO[C@@H]2[C@H](O)[C@@H](COP(=O)(O)O[C@@H]3[C@H](O)[C@@H](COP(=O)(O)CO[C@@H]4[C@H](O)[C@@H](COP(=O)(O)O)O[C@H]4n4cnc5c(N)ncnc54)O[C@H]3n3cnc4c(N)ncnc43)O[C@H]2n2cnc3c(N)ncnc32)[C@@H](O)[C@H]1O | inactive
Nc1ncnc2c1ncn2[C@@H]1O[C@H](COCP(=O)(O)O[C@@H]2[C@H](O)[C@@H](COP(=O)(O)O[C@H]3[C@H](O)[C@@H](COCP(=O)(O)O[C@@H]4[C@H](O)[C@@H](COP(=O)(O)O)O[C@H]4n4cnc5c(N)ncnc54)O[C@H]3n3cnc4c(N)ncnc43)O[C@H]2n2cnc3c(N)ncnc32)[C@@H](O)[C@@H]1O | inactive
Nc1ncnc2c1ncn2[C@@H]1O[C@H](COCP(=O)(O)O[C@H]2[C@H](O)[C@@H](COCP(=O)(O)O[C@H]3[C@H](O)[C@@H](COCP(=O)(O)O[C@@H]4[C@H](O)[C@@H](COP(=O)(O)O)O[C@H]4n4cnc5c(N)ncnc54)O[C@H]3n3cnc4c(N)ncnc43)O[C@H]2n2cnc3c(N)ncnc32)[C@@H](O)[C@@H]1O | inactive
Nc1ncnc2c1ncn2[C@@H]1O[C@H](COP(=O)(O)CO[C@H]2[C@H](O)[C@@H](COP(=O)(O)CO[C@H]3[C@H](O)[C@@H](COP(=O)(O)CO[C@H]4[C@H](O)[C@@H](COP(=O)(O)O)O[C@H]4n4cnc5c(N)ncnc54)O[C@H]3n3cnc4c(N)ncnc43)O[C@H]2n2cnc3c(N)ncnc32)[C@@H](O)[C@H]1O | inactive
Nc1ncnc2c1ncn2[C@@H]1O[C@H](COP(=O)(O)O[C@@H]2[C@H](O)[C@@H](COP(=O)(O)O[C@@H]3[C@H](O)[C@@H](COCP(=O)(O)O[C@@H]4[C@H](O)[C@@H](COCP(=O)(O)O)O[C@H]4n4cnc5c(N)ncnc54)O[C@H]3n3cnc4c(N)ncnc43)O[C@H]2n2cnc3c(N)ncnc32)[C@@H](O)[C@H]1O | inactive
Nc1ncnc2c1ncn2[C@@H]1O[C@H](COP(=O)(O)O[C@@H]2[C@@H](O)[C@@H](COCP(=O)(O)O[C@@H]3[C@H](O)[C@@H](COP(=O)(O)O[C@@H]4[C@@H](O)[C@@H](COCP(=O)(O)O)O[C@H]4n4cnc5c(N)ncnc54)O[C@H]3n3cnc4c(N)ncnc43)O[C@H]2n2cnc3c(N)ncnc32)[C@@H](O)[C@H]1O | inactive
Nc1ncnc2c1ncn2[C@@H]1O[C@H](COP(=O)(O)O[C@@H]2[C@H](O)[C@@H](COP(=O)(O)O[C@@H]3[C@@H](O)[C@@H](COCP(=O)(O)O[C@@H]4[C@@H](O)[C@@H](COCP(=O)(O)O)O[C@H]4n4cnc5c(N)ncnc54)O[C@H]3n3cnc4c(N)ncnc43)O[C@H]2n2cnc3c(N)ncnc32)[C@@H](O)[C@H]1O | inactive
Nc1ncnc2c1ncn2[C@@H]1O[C@H](COP(=O)(O)O[C@H]2[C@H](O)[C@@H](COCP(=O)(O)O[C@H]3[C@H](O)[C@@H](COCP(=O)(O)O[C@H]4[C@H](O)[C@@H](COCP(=O)(O)O)O[C@H]4n4cnc5c(N)ncnc54)O[C@H]3n3cnc4c(N)ncnc43)O[C@H]2n2cnc3c(N)ncnc32)[C@@H](O)[C@H]1O | inactive
Nc1ncnc2c1ncn2[C@@H]1O[C@H](COCP(=O)(O)O[C@@H]2[C@H](O)[C@@H](COP(=O)(O)O[C@@H]3[C@@H](O)[C@@H](COCP(=O)(O)O[C@@H]4[C@H](O)[C@@H](COP(=O)(O)O)O[C@H]4n4cnc5c(N)ncnc54)O[C@H]3n3cnc4c(N)ncnc43)O[C@H]2n2cnc3c(N)ncnc32)[C@H](O)[C@H]1O | inactive
Nc1ncnc2c1ncn2[C@@H]1O[C@H](COCP(=O)(O)O[C@@H]2[C@H](O)[C@@H](COP(=O)(O)O[C@@H]3[C@H](O)[C@@H](COP(=O)(O)O[C@@H]4[C@@H](O)[C@@H](COCP(=O)(O)O)O[C@H]4n4cnc5c(N)ncnc54)O[C@H]3n3cnc4c(N)ncnc43)O[C@H]2n2cnc3c(N)ncnc32)[C@H](O)[C@H]1O | inactive
Nc1ncnc2c1ncn2[C@@H]1O[C@H](COP(=O)(O)CO[C@@H]2[C@H](O)[C@@H](COP(=O)(O)CO[C@@H]3[C@H](O)[C@@H](COP(=O)(O)O[C@@H]4[C@H](O)[C@@H](COP(=O)(O)O)O[C@H]4n4cnc5c(N)ncnc54)O[C@H]3n3cnc4c(N)ncnc43)O[C@H]2n2cnc3c(N)ncnc32)[C@@H](O)[C@H]1O | inactive
Nc1ncnc2c1ncn2[C@@H]1O[C@H](COP(=O)(O)O[C@@H]2[C@@H](O)[C@@H](COCP(=O)(O)O[C@@H]3[C@@H](O)[C@@H](COCP(=O)(O)O[C@@H]4[C@H](O)[C@@H](COP(=O)(O)O)O[C@H]4n4cnc5c(N)ncnc54)O[C@H]3n3cnc4c(N)ncnc43)O[C@H]2n2cnc3c(N)ncnc32)[C@@H](O)[C@H]1O | inactive
Nc1ncnc2c1ncn2[C@@H]1O[C@H](COP(=O)(O)O[C@@H]2[C@H](O)[C@@H](COCP(=O)(O)O[C@@H]3[C@H](O)[C@@H](COCP(=O)(O)O[C@@H]4[C@H](O)[C@@H](COCP(=O)(O)O)O[C@H]4n4cnc5c(N)ncnc54)O[C@H]3n3cnc4c(N)ncnc43)O[C@H]2n2cnc3c(N)ncnc32)[C@@H](O)[C@H]1O | inactive
Nc1ncnc2c1ncn2[C@@H]1O[C@H](COCP(=O)(O)O[C@@H]2[C@H](O)[C@@H](COP(=O)(O)O[C@H]3[C@H](O)[C@@H](COCP(=O)(O)O[C@H]4[C@H](O)[C@@H](COCP(=O)(O)O)O[C@H]4n4cnc5c(N)ncnc54)O[C@H]3n3cnc4c(N)ncnc43)O[C@H]2n2cnc3c(N)ncnc32)[C@@H](O)[C@@H]1O | inactive
